Experimental data as given in ChEMBL document CHEMBL3259776, “Discovery and optimization of indazoles as potent and selective interleukin-2 inducible T cell kinase (ITK) inhibitors” (Bioorg Med Chem Lett, 2014).

Tests used:
[1] = target: T1, Tyrosine-protein kinase ITK/TSK (Homo sapiens, UniProt Q08881)
T1 sequence (Q08881 whole entry): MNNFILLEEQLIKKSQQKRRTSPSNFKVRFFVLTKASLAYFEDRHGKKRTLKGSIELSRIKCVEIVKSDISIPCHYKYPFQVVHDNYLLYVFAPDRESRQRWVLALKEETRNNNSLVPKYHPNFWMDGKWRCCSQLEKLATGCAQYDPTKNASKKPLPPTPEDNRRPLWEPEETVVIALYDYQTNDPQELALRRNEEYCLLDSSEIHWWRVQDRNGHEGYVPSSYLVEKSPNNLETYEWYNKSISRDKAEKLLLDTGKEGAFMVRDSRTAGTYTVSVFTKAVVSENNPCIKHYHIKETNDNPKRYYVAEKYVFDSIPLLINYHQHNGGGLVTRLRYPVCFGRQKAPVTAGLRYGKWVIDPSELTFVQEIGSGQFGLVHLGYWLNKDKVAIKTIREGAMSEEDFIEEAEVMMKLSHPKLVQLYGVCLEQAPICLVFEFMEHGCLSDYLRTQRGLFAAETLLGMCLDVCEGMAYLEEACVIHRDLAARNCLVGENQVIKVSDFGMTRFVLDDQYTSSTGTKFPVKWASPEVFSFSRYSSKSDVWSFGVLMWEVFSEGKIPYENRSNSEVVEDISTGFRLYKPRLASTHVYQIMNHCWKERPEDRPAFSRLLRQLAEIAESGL

[2] = AUC in rat at 1 mg/kg, iv; format: ADME, organism-based; parameters: dose 1 mg/kg, route intravenous; details: plasma
[3] = Half life in rat at 1 mg/kg, iv; format: ADME, organism-based; parameters: dose 1 mg/kg, route intravenous; details: in vivo
[4] = Clearance in rat at 1 mg/kg, iv; format: ADME, organism-based; parameters: dose 1 mg/kg, route intravenous; details: in vivo
[5] = Oral bioavailability in rat at 5 mg/kg; format: ADME, organism-based; details: in vivo
[6] = Lipophilicity, log D of the compound at pH 7.4; details: buffer
[7] = Half life in rat at 5 mg/kg, po; format: ADME, organism-based; parameters: dose 5 mg/kg, route oral; details: in vivo

Ki [1]	AUC [2]	half-life [3]	clearance [4]	bioavailability [5]	logD [6]	half-life [7]	SMILES
> 4 nM							O=C(Nc1ncc(Cc2ccccc2)s1)c1n[nH]c2ccccc12
> 4 nM							O=C(Nc1ncc(Cc2ccccc2)o1)c1n[nH]c2ccccc12
	0.837 µM·h	5.7 h	44 mL/min/kg	0%			CN(C)CC[C@@H](c1ccccc1)n1cc(NC(=O)c2n[nH]c3cc(-c4cn[nH]c4)ccc23)cn1
	2.5 µM·h	1.8 h	11 mL/min/kg	9%	3.4	2.6 h	CC(C)(O)[C@@H](c1ccccc1)n1cc(NC(=O)c2n[nH]c3cc(-c4cn[nH]c4)ccc23)cn1
